Source: patent US3957987A, “Compositions containing a carbonamidoquinoxaline-di-N-oxide and method of using same” (Bayer Aktiengesellschaft, priority 1971, dated 1976)
Values after ≈ are worked out from the molar mass of the structure shown.

Key:
Type in all cases: cell-based
[1] = test system: Clostridium tetani; test: microbe, parasite or virus in culture; conditions: read-out: minimum inhibitory concentration
[2] = test system: Clostridium botulinum; test: microbe, parasite or virus in culture; conditions: read-out: minimum inhibitory concentration
[3] = test system: Klebsiella 63; test: Minimum inhibitory concentration in vitro, Klebsiella 63
From the text: (§1) As representative of the spectrum of antimicrobial activity for these compounds, the following representative minimum inhibitory concentrations shown on Tables A, B and C can be noted:
(§2) Minimum Inhibitory Concentrations In Vitro, in μg/ml of Medium

[4] = test system: Proteus vulgaris; test: Minimum inhibitory concentration in vitro, Proteus vulgaris specieis
From the text: as §1, §2

[5] = test system: Mycoplasma S6; test: Minimum inhibitory concentration, Mycoplasma S6
[6] = test system: Aeromonas liquefaciens; test: Minimum inhibitory concentration, Aeromonas liquefaciens; conditions: Aeromonas hydrophila
[7] = test system: Pasteurella multocida ATCC; test: Minimum inhibitory concentration, Pasteurella multocida ATCC
[8] = test system: Streptococcus pyogenes; test: Minimum inhibitory concentration in vitro, Streptococcus pyogenes
From the text: as §1, §2

[9] = test system: Mycobacterium species; test: Minimum inhibitory concentration, Mycobacterium species
From the text: As representative of the spectrum of antimicrobial activity for these compounds, the following representative minimum inhibitory concentrations shown on Tables A, B and C can be noted: […]

[10] = test system: Escherichia coli C 165; test: Minimum inhibitory concentration in vitro, Escherichia coli C 165; conditions: C165
From the text: as §1, §2

[11] = test system: Bordetella bronchiseptica; test: Minimum inhibitory concentration, Bordetella bronchiseptica
[12] = test system: Escherichia coli A 261; test: Minimum inhibitory concentration in vitro, Escherichia coli A 261; conditions: A261
From the text: as §1, §2

[13] = test system: Staphylococcus aureus 133; test: Minimum inhibitory concentration in vitro, Staphylococcus aureus 133
From the text: as §1, §2

[14] = test system: Klebsiella 8085; test: Minimum inhibitory concentration in vitro, Klebsiella 8085
From the text: as §1, §2

[15] = test system: Mycoplasma gran; test: Minimum inhibitory concentration, Mycoplasma gran
[16] = test system: Alcaligenes faecalis ATCC; test: Minimum inhibitory concentration, Alcaligenes faecalis ATCC

Row | Compound | MIC [1] [µg/mL] | MIC [2] [µg/mL] | MIC [3] [µg/mL] | MIC [4] [µg/mL] | MIC [5] [µg/mL] | MIC [6] [µg/mL] | MIC [7] [µg/mL] | MIC [8] [µg/mL] | MIC [9] [µg/mL] | MIC [10] [µg/mL] | MIC [11] [µg/mL] | MIC [12] [µg/mL] | MIC [13] [µg/mL] | MIC [14] [µg/mL] | MIC [15] [µg/mL] | MIC [16] [µg/mL]
1 | CNC(=O)c1c(C=NNC(=O)OC)[n+]([O-])c2ccccc2[n+]1[O-] [Example 13] | 100 (≈ 313 µM) | 100 (≈ 313 µM) | 100 (≈ 313 µM) | 100 (≈ 313 µM) | 100 (≈ 313 µM) | 100 (≈ 313 µM) | 100 (≈ 313 µM) | 100 (≈ 313 µM) | 100 (≈ 313 µM) | 100 (≈ 313 µM) | 100 (≈ 313 µM) | 100 (≈ 313 µM) | 100 (≈ 313 µM) | 10 (≈ 31.3 µM) | 100 (≈ 313 µM) | 100 (≈ 313 µM)
2 | CCNC(=O)c1c(C=NNC(=O)OC)[n+]([O-])c2ccccc2[n+]1[O-] [Example 18] | 100 (≈ 300 µM) | 100 (≈ 300 µM) | 100 (≈ 300 µM) | 100 (≈ 300 µM) | 100 (≈ 300 µM) | 100 (≈ 300 µM) | 100 (≈ 300 µM) | 100 (≈ 300 µM) | 100 (≈ 300 µM) | 100 (≈ 300 µM) | 100 (≈ 300 µM) | 100 (≈ 300 µM) | 100 (≈ 300 µM) | 10 (≈ 30 µM) | 100 (≈ 300 µM) | 100 (≈ 300 µM)
